Patent publication US20110027300A1, “Identification of a novel cysteine-rich cell penetrating peptide” (Max-Planck-Gesellschaft zur Forderung der Wissenschaften …, priority 2008, published 2011)
Where two headings read alike, the source gives them in different places. Square brackets hold non-standard residues; d marks the D form. Ends that are not written are not given here. K(FITC) = lysine labelled with FITC

Key:
NIH 3T3 fibroblasts [1] = test: Uptake assay: cell-related FITC fluorescence corrected for cell number; type: cell-based, mouse; conditions: for cellular uptake / internalization efficiency: K(FITC)-labelled peptide
Description: NIH 3T3 mouse fibroblast cells were cultured as a monolayer at 37° C. with 10% CO2 in Dulbecco's Modified Eagle's Medium (DMEM) supplemented with 10% fetal bovine serum, 4 mM L-glutamine, 100 μg/mL streptomycin and 100 U/mL penicillin (all purchased from Biochrom AG, Germany). Cells were passaged by trypsinization with trypsin/EDTA 0.05/0.02% (w/v) in phosphate-buffered saline (PBS; Biochrom AG, Germany) every second to third day.
(§1) Internalization experiments on cells were performed in 96 well microplates by inoculation of NIH 3T3 fibroblasts (1×10^4 cells/well). After 24 h, cells were incubated with 2.5 μM of different peptide solutions in DMEM for additional 18 h at 37° C. with 10% CO2. Before washing, cells were incubated with Bisbenzimid 33342 (Hoechst 33342), a nuclear stain, in order to estimate the cell number. Cells were washed with Hanks' buffered saline (Biochrom AG, Germany) and extracellular fluorescence was quenched by incubating with cold trypan blue 0.05% (w/v) in phosphate-buffered saline (Biochrom AG, Germany) for 3 min followed by repeated washes with Hanks' buffered saline. Cell-related FITC fluorescence (Ex 485 nm/Em 530 nm) and cell number (Ex 346 nm/Em 460 nm) was evaluated in a multiplate reader. Experiments were run at least three times for each peptide with six replicates. Statistical analysis was performed by Student's t-test or ANOVA with Dunnett's post test. P values <0.05 were considered significant. The results are depicted in FIGS. 1 to 3.

[2] = test system: different cell types and mouse blastocysts; conditions: cited from earlier work
NIH 3T3 fibroblasts [3] = test: Fluorescence microscopy of cellular localization and distribution of the peptide; type: cell-based, mouse; conditions: for intracellular fluorescence distribution (vesicular / diffused cytosolic): K(FITC)-labelled peptide, 2.5 μM, live cells without fixation
Text: (§2) The same cells were subjected to microscopic studies without fixation using a Zeiss Axiovert 200 M (Germany) microscope with a LD Plan NeoFluor 40× objective. The imaging conditions were kept constant for the observation of different samples. Cellular localization and distribution of the peptide was observed by irradiating with blue light (470/40 nm) and observing at 525/50 nm. The bright punctate and encapsulated appearing FITC fluorescence was categorized as vesicular uptake while diffused fluorescence appeared to be distributed in the entire cell with similar intensity. […] Also phase contrast images with DIC of the same area were made to observe if the cells maintain their normal morphology in the presence of peptides.

[4] = test system: Primary murine bone marrow cells; test: Internalization in additional cell lines; type: cell-based, mouse
Description: (§3) C6 rat glioma N18 mouse neuroblastoma (differentiated, undifferentiated) CCL-11 mouse fibrosarcoma Shin3 human ovarian carcinoma PANC1 human pancreatic carcinoma Primary murine bone marrow cells
Bone marrow cells were extracted from hind legs of sacrificed mice and were kept in supplemented IMDM medium.
as §1, with “3. […]” for “3.”

[5] = Peptide NMR in water, solution state; type: physicochemical
Description: Sample solutions were prepared at pH 4-4.5 and pH 6.5-7 in water. At pH 4.5 standard set of 2D homonuclear experiments (2D-ipCOSY, 2D-TOCSY, two 2D-NOESY spectra at different mixing times (100 and 200 ms)) and heteronuclear experiments (^13C-HSQC and ^15N-HSQC) were performed. The sample yielded well resolved spectra consistent with a monomeric peptide. Using these spectra it was possible to complete a full assignment of all non-exchangeable proton resonances, plus the carbon and nitrogen resonances.
Whereas at pH 6.5, broadening of lines, probably due to the formation of high molecular weight aggregates, makes it difficult to assign individual resonances. Thus, the presence or absence of disulfide bridges in this sample could not be deduced.
NMR experiments were carried out at 600 MHz on a Bruker Avance III spectrometer.

[6] = test system: differentiated N18 neuroblastoma cells; test: Internalization in additional cell lines; type: cell-based, mouse; conditions: differentiated N18, serum reduced from 10% to 1.25%
Description: as §3
(§4) Cells were cultivated using their respective optimized growth medium and passaged as described. Differentiation was induced in N18 cells by stepwise reduction of serum in the growth medium from 10% to 1.25%.
as §1, with “P values <0.05 were considered significant. The results are depicted in FIGS. 1 to 3.” left out

[7] = test system: N18 mouse neuroblastoma (undifferentiated); test: Internalization in additional cell lines; type: cell-based
Description: as §3, §4, §1, §2

[8] = test system: Shin3 human ovarian carcinoma; test: Internalization in additional cell lines; type: cell-based
Description: as §3, §4, §1, §2

[9] = test system: CCL-11 mouse fibrosarcoma; test: Internalization in additional cell lines; type: cell-based
Description: as §3, §4, §1, §2

[10] = test system: PANC1 human pancreatic carcinoma; test: Internalization in additional cell lines; type: cell-based
Description: as §3, §4, §1, §2

C6 rat glioma = test: Internalization in additional cell lines; type: cell-based
Description: as §3, §4, §1, §2

cells = conditions: cited from earlier work

## Ac-tccgtgaacggc-K(FITC)-CRWRWKCCKK-CONH2 (chain 1 Ac-[code t][code c][code c][code g][code t][code g][code a][code a][code c][code g][code g][code c]; chain 2 {K(FITC)}-CRWRWKCCKK-NH2; not fully specified (C-terminus); cysteine pairing not given here; also: chain 1 is a PNA strand joined via Lys(FITC) to peptide chain 2) [PNA-CyLoP-1 fusion]
NIH 3T3 fibroblasts [1]; 2.5 μM, 18 h, 37° C.
  uptake compared to peptide 23 (CyLoP-1): lowest intracellular fluorescence

## Crotamine
[2]; applied before cell division, after the telophase
  intracellular localization: mainly localized in the cytoplasm
[2]
  intracellular localization: localize preferably in the nucleus
  non-toxic concentration: up to 1 μM
[2]; in vitro
  cell penetration: penetrating into different cell types and mouse blastocysts

## K (FITC)-CRWRWKCCKK ({K(FITC)}-CRWRWKCCKK; cysteine pairing not given here) [peptide 23]
NIH 3T3 fibroblasts [1]; 2.5 μM
  delivery efficiency compared with penetratin: better taken up by cells
NIH 3T3 fibroblasts [1]; 2.5 μM, 18 h, 37° C.
  cellular uptake / internalization efficiency: competently taken up by cells
NIH 3T3 fibroblasts [1]; excess DTT in the incubation medium
  uptake and cytosolic diffused fluorescence on addition of Dithiothreitol (DTT): reduced the uptake as well as the cytosolic diffused fluorescence
NIH 3T3 fibroblasts [1]; subtoxic concentrations
  concentration at which efficient cellular uptake and cytosolic location along with vesicular distribution is shown: < 2.5 µM
NIH 3T3 fibroblasts [3]
  intracellular fluorescence distribution (vesicular / diffused cytosolic): endosomal as well as cytoplasmic fluorescence distribution
NIH 3T3 fibroblasts [3]; concentration as low as 2.5 μM
  cytosolic distribution at low concentration: retaining the cytosolic distribution
[4]
  uptake behaviour and fluorescence distribution: comparable uptake behaviour with vesicular as well as diffused cytosolic fluorescence distribution
[5]; pH 4.5 in water
  solution state of the peptide: unstructured and in a reduced state
[5]; pH 6.5 in water
  solution state of the peptide: aggregation
[6]
  uptake: strongly reduced
[7]
  uptake behaviour and fluorescence distribution: comparable uptake behaviour with vesicular as well as diffused cytosolic fluorescence distribution
[8]
  uptake behaviour and fluorescence distribution: comparable uptake behaviour with vesicular as well as diffused cytosolic fluorescence distribution
[9]
  uptake behaviour and fluorescence distribution: comparable uptake behaviour with vesicular as well as diffused cytosolic fluorescence distribution
[10]
  uptake behaviour and fluorescence distribution: comparable uptake behaviour with vesicular as well as diffused cytosolic fluorescence distribution
C6 rat glioma
  uptake behaviour and fluorescence distribution: comparable uptake behaviour with vesicular as well as diffused cytosolic fluorescence distribution

## K (FITC)-KMDCRWRWKCCKK ({K(FITC)}-KMDCRWRWKCCKK; cysteine pairing not given here) [peptide 1, reference compound]
NIH 3T3 fibroblasts [1]; 2.5 μM, 18 h, 37° C.
  cellular uptake / internalization efficiency: efficient CPP
NIH 3T3 fibroblasts [3]
  intracellular fluorescence distribution (vesicular / diffused cytosolic): cytoplasmic diffusion
cells
  internalization into cells: able to internalize into cells
